The results in this text go back to patent US20020110830A1, “VEGF responsive cell-based assay for determining VEGF bioactivity” (priority 2001, published 2002).

Molecules are shown by their SMILES.

The target in this experiment is T1, FLK-1 VEGF receptor (Mus musculus, UniProt P35918).
T1 construct: expressed in transfected cells; host or cells: HeLa (HLR-ELK-1, Stratagene) stably co-transfected with the FLK-1 expression vector; clone #5
Kind of experiment: VEGF responsive luciferase assay in VEGF-receptor stable transfected HLR-ELK-1 cell line (clone #5). Conditions: FIG. 9. It is filed as cell-based. The text has this:
The assay of the present invention utilizes a stable VEGF responsive cell line which comprises HeLa cells which have been stably transfected with a reporter vector having an expressible reporter element and a DNA binding element disposed adjacent thereto. Preferably, the reporter vector includes a gene encoding a detectable gene product which is disposed downstream of a basic promoter element, preferably a TATA box, which is joined to the binding element which is preferably a GAL4 binding element. […]
In general, utilizing known signal transduction relationships and/or pathways, a sample to be assayed for VEGF bioactivity is placed in a container containing the stable cell line as described above. […] Activated FLK-1, which is a known VEGF receptor, then activates MAP kinase (Kroll and Waltenberger, J. Biol. Chem., 1997:272:32521-32527; Doanes et. al., Biochem. Biophys. Res. Comm., 1999;255:545-548. The activated MAP kinase phosphorylates the fusion trans-activation protein (GAL4 DNA binding domain [dbd] fused with ELK-1). The phosphorylated fusion protein binds to the GAL4 DNA binding site of the reported vector activating luciferase expression. Luciferase expression can be detected utilizing techniques well-known in the art. The presence or expression of luciferase indicates VEGF activity in the sample. […]

T1 sequence (P35918 20-1345): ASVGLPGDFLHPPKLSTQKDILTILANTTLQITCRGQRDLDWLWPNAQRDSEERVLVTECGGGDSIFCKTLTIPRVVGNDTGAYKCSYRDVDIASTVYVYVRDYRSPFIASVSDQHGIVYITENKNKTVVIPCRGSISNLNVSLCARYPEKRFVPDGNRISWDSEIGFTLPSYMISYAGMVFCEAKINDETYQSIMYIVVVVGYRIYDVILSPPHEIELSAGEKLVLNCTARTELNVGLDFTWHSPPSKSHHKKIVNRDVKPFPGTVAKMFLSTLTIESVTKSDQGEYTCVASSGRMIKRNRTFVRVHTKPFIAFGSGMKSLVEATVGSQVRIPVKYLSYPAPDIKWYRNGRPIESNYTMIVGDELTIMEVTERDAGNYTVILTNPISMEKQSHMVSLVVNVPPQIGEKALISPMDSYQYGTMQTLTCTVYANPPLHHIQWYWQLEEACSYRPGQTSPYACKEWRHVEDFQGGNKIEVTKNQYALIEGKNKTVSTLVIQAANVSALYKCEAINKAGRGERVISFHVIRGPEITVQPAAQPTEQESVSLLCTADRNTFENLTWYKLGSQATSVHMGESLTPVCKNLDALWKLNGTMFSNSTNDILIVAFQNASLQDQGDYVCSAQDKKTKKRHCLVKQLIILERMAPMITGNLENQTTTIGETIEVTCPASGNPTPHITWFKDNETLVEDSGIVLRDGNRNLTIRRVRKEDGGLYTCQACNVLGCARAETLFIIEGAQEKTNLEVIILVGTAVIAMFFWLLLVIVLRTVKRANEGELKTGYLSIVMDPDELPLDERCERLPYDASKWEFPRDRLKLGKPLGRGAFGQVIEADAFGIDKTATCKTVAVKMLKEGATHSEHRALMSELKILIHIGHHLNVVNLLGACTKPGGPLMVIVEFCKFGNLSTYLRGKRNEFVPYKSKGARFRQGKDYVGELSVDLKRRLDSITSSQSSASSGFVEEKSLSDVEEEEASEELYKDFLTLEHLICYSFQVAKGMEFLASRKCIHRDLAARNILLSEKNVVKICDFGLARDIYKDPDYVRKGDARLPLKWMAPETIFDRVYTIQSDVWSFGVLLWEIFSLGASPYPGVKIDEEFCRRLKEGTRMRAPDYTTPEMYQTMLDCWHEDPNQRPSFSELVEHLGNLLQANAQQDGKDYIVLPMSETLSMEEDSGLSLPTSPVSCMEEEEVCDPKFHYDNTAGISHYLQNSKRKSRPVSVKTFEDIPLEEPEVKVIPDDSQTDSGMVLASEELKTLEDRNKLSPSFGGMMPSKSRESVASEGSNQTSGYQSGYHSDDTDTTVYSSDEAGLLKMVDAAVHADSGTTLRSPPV

Regarding `COc1cc2c(Nc3ccc(Br)cc3F)ncnc2cc1OCCn1ccnn1` [ZD4190], the “effect on VEGF stimulation of luciferase expression” value is “affected luciferase expression in a dose-response manner”.
